In PubChem BioAssay (NCI):
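All cell lines were grown in 96-well plates and treated with compound for 48 hours. TGI: concentration producing complete growth inhibition.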

Key:
Test in all cases: NCI anticancer screen, dose series, 48 h
[1] = test system: 786-0 renal
[2] = test system: A498 renal
[3] = test system: A549 NSCLC
[4] = test system: ACHN renal
[5] = test system: CAKI-1 renal
[6] = test system: CCRF-CEM leukemia
[7] = test system: COLO 205 colon
[8] = test system: DLD-1 colon
[9] = test system: DMS 114 small cell lung
[10] = test system: DMS 273 small cell lung
[11] = test system: EKVX NSCLC
[12] = test system: HCC-2998 colon
[13] = test system: HCT-116 colon
[14] = test system: HCT-15 colon
[15] = test system: HL-60(TB) leukemia
[16] = test system: HOP-18 NSCLC
[17] = test system: HOP-62 NSCLC
[18] = test system: HOP-92 NSCLC
[19] = test system: HT29 colon
[20] = test system: IGROV1 ovarian
[21] = test system: K-562 leukemia
[22] = test system: KM12 colon
[23] = test system: KM20L2 colon
[24] = test system: LOX IMVI melanoma
[25] = test system: LXFL 529 NSCLC
[26] = test system: M14 melanoma
[27] = test system: MALME-3M melanoma
[28] = test system: MOLT-4 leukemia
[29] = test system: NCI-H226 lung
[30] = test system: NCI-H23 lung
[31] = test system: NCI-H460 lung
[32] = test system: NCI-H522 lung
[33] = test system: OVCAR-3 ovarian
[34] = test system: OVCAR-5 ovarian
[35] = test system: OVCAR-8 ovarian
[36] = test system: RPMI-8226 leukemia
[37] = test system: RXF 393 renal
[38] = test system: SF-268 CNS
[39] = test system: SF-295 CNS
[40] = test system: SF-539 CNS
[41] = test system: SK-MEL-2 melanoma
[42] = test system: SK-MEL-28 melanoma
[43] = test system: SK-MEL-5 melanoma
[44] = test system: SK-OV-3 ovarian
[45] = test system: SN12C renal
[46] = test system: SNB-19 CNS
[47] = test system: SNB-75 CNS
[48] = test system: SNB-78 CNS
[49] = test system: SR leukemia
[50] = test system: SW-620 colon
[51] = test system: TK-10 renal
[52] = test system: U251 CNS
[53] = test system: UACC-257 melanoma
[54] = test system: UACC-62 melanoma
[55] = test system: UO-31 renal
[56] = test system: XF 498 CNS
[57] = test system: M19-MEL melanoma
[58] = test system: OVCAR-4 ovarian

SMILES: N#CC(C(=O)C(=O)Nc1ccc(Cl)c(Cl)c1)c1ccc(Cl)cc1 (stereo not given)
- TGI [1]: > 100 µM
- TGI [2]: > 100 µM
- TGI [3]: > 100 µM
- TGI [4]: > 100 µM
- TGI [5]: > 100 µM
- TGI [6]: > 100 µM
- TGI [7]: > 100 µM
- TGI [8]: > 100 µM
- TGI [9]: 45.7 µM
- TGI [10]: > 100 µM
- TGI [11]: > 100 µM
- TGI [12]: > 100 µM
- TGI [13]: 49.8 µM
- TGI [14]: > 100 µM
- TGI [15]: > 100 µM
- TGI [16]: > 100 µM
- TGI [17]: > 100 µM
- TGI [18]: 99.2 µM
- TGI [19]: > 100 µM
- TGI [20]: > 100 µM
- TGI [21]: 60.1 µM
- TGI [22]: > 100 µM
- TGI [23]: > 100 µM
- TGI [24]: 31.1 µM
- TGI [25]: > 100 µM
- TGI [26]: > 100 µM
- TGI [27]: > 100 µM
- TGI [28]: > 100 µM
- TGI [29]: > 100 µM
- TGI [30]: > 100 µM
- TGI [31]: 96.7 µM
- TGI [32]: 65.5 µM
- TGI [33]: > 100 µM
- TGI [34]: > 100 µM
- TGI [35]: > 100 µM
- TGI [36]: > 100 µM
- TGI [37]: > 100 µM
- TGI [38]: > 100 µM
- TGI [39]: > 100 µM
- TGI [40]: > 100 µM
- TGI [41]: > 100 µM
- TGI [42]: > 100 µM
- TGI [43]: > 100 µM
- TGI [44]: > 100 µM
- TGI [45]: > 100 µM
- TGI [46]: > 100 µM
- TGI [47]: > 100 µM
- TGI [48]: > 100 µM
- TGI [49]: > 100 µM
- TGI [50]: 30.8 µM
- TGI [51]: > 100 µM
- TGI [52]: > 100 µM
- TGI [53]: > 100 µM
- TGI [54]: > 100 µM
- TGI [55]: > 100 µM
- TGI [56]: > 100 µM

SMILES: C[C@]12CC/C(=N\OC(=O)Nc3ccccc3)C=C1CC[C@@H]1C2CC[C@@]2(C)C1CC[C@@H]2OC(=O)Nc1ccccc1 (stereo not given in full)
- TGI [1]: > 100 µM
- TGI [2]: > 100 µM
- TGI [3]: > 100 µM
- TGI [4]: > 100 µM
- TGI [5]: 19.8 µM
- TGI [6]: > 100 µM
- TGI [7]: > 100 µM
- TGI [9]: > 100 µM
- TGI [10]: > 100 µM
- TGI [11]: > 100 µM
- TGI [12]: > 100 µM
- TGI [13]: > 100 µM
- TGI [14]: 14.2 µM
- TGI [15]: > 100 µM
- TGI [16]: > 100 µM
- TGI [18]: > 100 µM
- TGI [19]: > 100 µM
- TGI [20]: > 100 µM
- TGI [21]: > 100 µM
- TGI [22]: > 100 µM
- TGI [23]: > 100 µM
- TGI [24]: > 100 µM
- TGI [25]: > 100 µM
- TGI [26]: > 100 µM
- TGI [57]: > 100 µM
- TGI [28]: > 100 µM
- TGI [30]: > 100 µM
- TGI [31]: > 100 µM
- TGI [33]: > 100 µM
- TGI [58]: > 100 µM
- TGI [34]: > 100 µM
- TGI [35]: > 100 µM
- TGI [36]: > 100 µM
- TGI [38]: > 100 µM
- TGI [39]: > 100 µM
- TGI [40]: > 100 µM
- TGI [41]: > 100 µM
- TGI [43]: > 100 µM
- TGI [44]: > 100 µM
- TGI [45]: 30.8 µM
- TGI [46]: > 100 µM
- TGI [47]: > 100 µM
- TGI [48]: > 100 µM
- TGI [50]: > 100 µM
- TGI [51]: > 100 µM
- TGI [52]: > 100 µM
- TGI [54]: > 100 µM
- TGI [55]: > 100 µM
- TGI [56]: 27.3 µM
